What was measured:
[1] = Pharmacokinetic study on rat; type: in vivo, SD rats; conditions: for F: 5 mg/kg p.o vs 1 mg/kg i.v; for AUC(0-t) / Cmax / clearance / half-life: male, Sprague-Dawley (SD), plasma
Text: • SD rats: male, 180-250 g, purchased from Beijing Vital River Laboratory Animal Technology Co., Ltd. • Reagents: DMSO (dimethyl sulfoxide), PEG-400 (polyethylene glycol 400), physiological saline, heparin, acetonitrile, formic acid, and propranolol (internal standard), all of which are commercially available. • Instruments: Thermo Fisher Scientific LC-MS (U300 UPLC, TSQ QUANTUMN ULTRA triple quadrupole mass spectrometer).
A compound was weighed and dissolved in a DMSO-PEG-400-physiological saline (5:60:35, v/v/v) system. After the rats were administered with the compound intravenously or by gavage, 200 μL of venous blood samples were collected at 15 min, 30 min, 1 h, 2 h, 5 h, 7 h, and 24 h (for i.v. group an additional collection was performed at 5 min) in heparinized EP tubes respectively, which were centrifuged at 12,000 rpm for 2 min, and the plasma was frozen at −80° C. for further testing. A certain amount of the test substance was precisely weighed and dissolved in DMSO to obtain a stock solution with a concentration of 2 mg/mL. An appropriate amount of the stock solution of the compound was accurately pipetted and diluted with acetonitrile to prepare a standard series solution. 20 μL of each of the above standard series solution was accurately pipetted, added with 180 μL of blank plasma, and vortexed mixed to prepare plasma samples corresponding to plasma concentrations of 0.3, 1, 3, 10, 30, 100, 300, 1000, 3000 ng/mL. Two-sample analysis was performed for each concentration to establish a standard curve. 30 μL of plasma (for samples that are obtained at 5 min, 15 min, 30 min, and 1 h after intravenous administration, the plasma were diluted 10 times) was taken, added with 200 μL of a solution of internal standard propranolol in acetonitrile (50 ng/ml), and vortexed mixed. The mixture was then added with 100 μL of pure water, and vortexed and mixed again. It was centrifuged at 4000 rpm for 5 min, and the supernatant was collected for LC-MS analysis. LC-MS detection conditions were as follows. • Chromatographic column: Thermo Scientific HYPERSIL GOLD C-18 UPLC column, 100*2.1 mm, 1.7 μm. • Mobile phase: water (with 0.1% formic acid)-acetonitrile; gradient elution was performed according to the table below.
After blood drug concentrations was detected by LC-MS, WinNonlin 6.1 software was used to calculate pharmacokinetic parameters based on non-compartmental model.

human GLP-1 R = biological target: T1, human GLP-1 R (Homo sapiens, UniProt P43220); assay: cAMP signal activation in human GLP1R cells (hGLP1R-U2OS, HTRF); type: cell-based
T1 construct: expressed in transfected cells
Experimental: A cell line stably expressing human GLP1 R (hGLP1R-U2OS) was used in this experiment. The cells were cultured in a growth medium (complete medium, DMEM+10% FBS+500 μg/mL G418 (Promega)) in an incubator at 37° C. and has 5% CO2 saturated humidity.
hGLP1R-U2OS was inoculated into 384-well plate with 1.0×10^4 cells/well (5 μL) (cell working solution: DMEM+0.1% BSA+1 mM IBMX (available from Bide Pharmatech Ltd.)), and was placed in an incubator at 37° C. and held for 30 min. The compounds to be tested were diluted stage-by-stage with Stimulation Buffer 1 (1×) in the kit, and the diluted compounds were added to the culture plate with 5 μL/well. They were incubated in an incubator at 37° C. for 30 min. Then, 5 μL/well of cAMP-d2 prepared with Lysis & Detection buffer and 5 μL/well of Anti CAMP-Cryptate working solution were added successively, and they were incubated at room temperature for 60 min before detection.
The ratio of signal emitted by donor to […] in each well was calculated as follows: HTRF rate=signal at 665 nm/signal at 620 nm×104, and then the HTRF rate was converted into a reaction rate (%). The concentration-response curve of each Example compound was created by a 4-parameter equation as Y=Bottom+(Top−Bottom)/(1+10^((Log IC50−X)*HillSlope)), and the half maximal (50%) effective concentration (EC50) was calculated.

[2] = biological target: T2, hERG potassium ion channel (Homo sapiens, UniProt Q12809); assay: Effect on hERG potassium ion channel (CHO-hERG, manual patch clamp); type: cell-based
T2 construct: expressed in transfected cells
Experimental: A cell line CHO-hERG from ovary of Chinese hamster that stably expresses hERG potassium channel was used in this experiment. The cells were cultured in F12 complete medium containing 10% FBS, 1% antibiotics (G418), and 89 μg/mL hygromycin. The recovery medium was a F12 medium containing 10% FBS. Culture was performed at 37° C. and under 5% CO2.
The inhibitory activity of the compounds of the present invention in series gradient concentrations on the potassium channel in CHO-hERG was determined by manual patch clamp system.

T1 sequence (P43220 24-463): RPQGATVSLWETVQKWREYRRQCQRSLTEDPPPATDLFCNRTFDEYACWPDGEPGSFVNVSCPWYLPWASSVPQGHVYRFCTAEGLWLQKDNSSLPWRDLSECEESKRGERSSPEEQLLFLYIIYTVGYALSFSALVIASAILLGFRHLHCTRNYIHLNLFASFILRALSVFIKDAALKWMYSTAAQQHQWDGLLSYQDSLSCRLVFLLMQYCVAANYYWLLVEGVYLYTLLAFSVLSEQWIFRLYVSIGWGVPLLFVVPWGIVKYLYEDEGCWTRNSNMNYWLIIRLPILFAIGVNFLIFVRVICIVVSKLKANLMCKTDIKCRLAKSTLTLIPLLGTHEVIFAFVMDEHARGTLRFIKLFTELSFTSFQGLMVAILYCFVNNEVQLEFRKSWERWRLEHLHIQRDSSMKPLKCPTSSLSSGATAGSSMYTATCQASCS
T2 sequence (Q12809 whole entry): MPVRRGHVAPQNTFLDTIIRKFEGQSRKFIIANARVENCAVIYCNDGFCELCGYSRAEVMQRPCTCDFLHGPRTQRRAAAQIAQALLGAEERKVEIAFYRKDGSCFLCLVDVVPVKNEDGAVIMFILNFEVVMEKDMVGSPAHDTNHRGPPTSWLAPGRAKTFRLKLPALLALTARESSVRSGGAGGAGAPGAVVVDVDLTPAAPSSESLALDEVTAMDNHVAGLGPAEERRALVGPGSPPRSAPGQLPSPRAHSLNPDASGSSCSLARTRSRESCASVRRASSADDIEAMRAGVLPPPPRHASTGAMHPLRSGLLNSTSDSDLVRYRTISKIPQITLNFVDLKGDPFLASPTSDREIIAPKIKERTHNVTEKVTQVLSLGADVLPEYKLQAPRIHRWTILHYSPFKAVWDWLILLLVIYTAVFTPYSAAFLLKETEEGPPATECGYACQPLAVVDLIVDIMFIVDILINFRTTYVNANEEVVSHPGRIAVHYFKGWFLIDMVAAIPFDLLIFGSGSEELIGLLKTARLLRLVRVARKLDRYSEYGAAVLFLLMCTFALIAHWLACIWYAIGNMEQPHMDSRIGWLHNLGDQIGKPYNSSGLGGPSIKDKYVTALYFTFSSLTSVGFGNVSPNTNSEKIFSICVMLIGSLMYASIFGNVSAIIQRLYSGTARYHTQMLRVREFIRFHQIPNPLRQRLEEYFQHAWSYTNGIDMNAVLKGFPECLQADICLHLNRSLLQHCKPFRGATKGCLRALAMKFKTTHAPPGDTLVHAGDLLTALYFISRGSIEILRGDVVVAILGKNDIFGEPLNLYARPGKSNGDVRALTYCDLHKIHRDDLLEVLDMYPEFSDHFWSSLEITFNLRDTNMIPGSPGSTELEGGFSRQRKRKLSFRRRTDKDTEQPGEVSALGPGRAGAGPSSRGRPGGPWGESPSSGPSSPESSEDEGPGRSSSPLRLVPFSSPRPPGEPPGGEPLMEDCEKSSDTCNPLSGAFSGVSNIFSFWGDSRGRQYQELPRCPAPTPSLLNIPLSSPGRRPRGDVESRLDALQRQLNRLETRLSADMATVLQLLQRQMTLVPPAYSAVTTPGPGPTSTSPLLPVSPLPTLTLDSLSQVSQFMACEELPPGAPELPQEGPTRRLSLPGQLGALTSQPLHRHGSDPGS

F [1] | AUC(0-t) ([1]; iv, 1 mg/kg, i.v) | Cmax ([1]; iv, 1 mg/kg, i.v) | clearance ([1]; iv, 1 mg/kg, i.v) | half-life ([1]; iv, 1 mg/kg, i.v) | AUC(0-t) ([1]; po, 5 mg/kg, p.o) | Cmax ([1]; po, 5 mg/kg, p.o) | half-life ([1]; po, 5 mg/kg, p.o) | EC50 (human GLP-1 R) | SMILES | IC50 [2]
72.8% | 5770 ng·h/mL | 4730 ng/mL | 2.88 mL/min/kg | 3.87 h | 21000 ng·h/mL | 3470 ng/mL | 2.76 h | 1.04 nM | C[C@@H](c1nc2ccc(C(=O)O)cc2n1C[C@@H]1CCO1)N1CCC(c2cccc(OCc3cc(F)ccc3F)n2)CC1 [Example 5, 2-((S)-1-(4-(6-((2,5-difluorobenzyl)oxy)pyridin-2-yl)piperidin-1-yl)ethyl)-1-(((S)-oxetan-2-yl)methyl)-1H-benzo[d]imidazol-6-carboxylic acid] | –
34.3% | 613 ng·h/mL | 1990 ng/mL | 27.2 mL/min/kg | 0.71 h | 1050 ng·h/mL | 323 ng/mL | 1.06 h | 2.28 nM | C[C@@H](c1nc2ccc(C(=O)O)nc2n1C[C@@H]1CCO1)N1CCN(c2cccc(OCc3ccc(C#N)cc3F)n2)CC1 [Example 51A, 2-((S)-1-(4-(6-((4-cyano-2-fluorobenzyl)oxy)pyridin-2-yl)piperazin-1-yl)ethyl)-3-(((S)-oxetan-2-yl)methyl)-3H-imidazo[4,5-b]pyridin-5-carboxylic acid] | –
63.5% | 1250 ng·h/mL | 2330 ng/mL | 13.3 mL/min/kg | 0.71 h | 3970 ng·h/mL | 1290 ng/mL | 3.11 h | 3.18 nM | C[C@@H](c1nc2ccc(C(=O)O)cc2n1C[C@@H]1CCO1)N1CCC(c2cccc(OCc3ccc(C#N)cc3F)n2)CC1 [Example 2A, 2-((S)-1-(4-(6-((4-cyano-2-fluorobenzyl)oxy)pyridin-2-yl)piperidin-1-yl)ethyl)-1-(((S)-oxetan-2-yl)methyl)-1H-benzo[d]imidazol-6-carboxylic acid] | –
46.4% | 539 ng·h/mL | 1290 ng/mL | 30.7 mL/min/kg | 0.31 h | 1250 ng·h/mL | 348 ng/mL | 1.17 h | 4.66 nM | C[C@@H](c1nc2ccc(C(=O)O)cc2n1C[C@@H]1CCO1)N1CCN(c2cccc(OCc3ccc(C#N)cc3F)n2)CC1 [Example 20A, 2-((S)-1-(4-(6-((4-cyano-2-fluorobenzyl)oxy)pyridin-2-yl)piperazin-1-yl)ethyl)-1-(((S)-oxetan-2-yl)methyl)-1H-benzo[d]imidazol-6-carboxylic acid] | > 30000 nM

From patent US20240246959A1, “BENZIMIDAZOLE DERIVATIVE AND PREPARATION METHOD THEREFOR AND MEDICAL USE THEREOF” (Shenzhen Salubris Pharmaceuticals Co., Ltd., priority 2020, published 2024)
